Reference: patent publication US20220081422A1 (Janssen Biotech, Inc., priority 2019, published 2022)

Key:
human DHODH = target: T1, human DHODH (Homo sapiens, UniProt Q02127); assay: DHODH enzymatic assay (DCIP absorbance, end-point); assay type: biochemical; conditions: purified human DHODH, DCIP as final electron acceptor, end-point mode; read-out: hDHODH IC50
T1 construct: purchased Proteros PR-0044
Experimental: In vitro Assay: DHODH enzymatic assay
To detect DHODH enzyme activities, dichloroindophenol (DCIP) is added as the final electron acceptor in the assay. DCIP can accept electrons from the reduced coenzyme Q generated in the assay, or from dihydroorotate (DHO) via FMN by binding presumably to the ubiquinone pocket. […] The assay buffer contained […], pH 7.5, 150 mM NaCl, 0.5 mM EDTA, and 0.1% Triton X-100 in MilliQ water. Substrate consisting of 20 mM DHO, 5 mM CoQ6, and 1 mM DCIP in assay buffer, initiates the reaction. […] Absorbance measurements were obtained using the BMG Phera Star plate-reading spectrophotometer. Purified human DHODH was purchased from Proteros (cat. No. PR-0044). Chemicals were purchased from Sigma-Aldrich, Teknova, and Avanti Polar Lipids. Liquid handling was performed using Labcyte Echo and Formulatrix Tempest.

MOLM-13 cells = assay: MOLM-13 cellular assay (CellTiter-Glo cell viability); assay type: cell-based; conditions: 72 hours exposure, cell viability by CellTiter-Glo
Experimental: In Vitro Assay: MOLM-13 Cellular Assay
MOLM-13 cells were obtained from DSMZ and were maintained in RPMI 1640+Glutamax+25 mM HEPES (Invitrogen, catalog number 72400) supplemented with 10% heat inactivated fetal bovine serum (FBS; Invitrogen, catalog number 16140). The day prior to assay set-up, cells were pelleted, resuspended in fresh media, counted, and cells were plated at 0.4×10^6 cell/mL in a T150 flask. On the day of the assay, cells were pelleted, resuspend in fresh media, counted and seeded at 5,000 cells/well in white opaque 96-well tissue culture treated microplates (Perkin Elmer, catalog number 6005680). Cells were exposed to different concentrations of test compounds at 37° C., 5% CO2 for 72 hours immediately after seeding. Cell viability was acquired on a Perkin Elmer Envision 2104 multilabel reader using the CellTiter-Glo assay (Promega) according to the manufacturer's instructions.

T1 sequence (Q02127 whole entry): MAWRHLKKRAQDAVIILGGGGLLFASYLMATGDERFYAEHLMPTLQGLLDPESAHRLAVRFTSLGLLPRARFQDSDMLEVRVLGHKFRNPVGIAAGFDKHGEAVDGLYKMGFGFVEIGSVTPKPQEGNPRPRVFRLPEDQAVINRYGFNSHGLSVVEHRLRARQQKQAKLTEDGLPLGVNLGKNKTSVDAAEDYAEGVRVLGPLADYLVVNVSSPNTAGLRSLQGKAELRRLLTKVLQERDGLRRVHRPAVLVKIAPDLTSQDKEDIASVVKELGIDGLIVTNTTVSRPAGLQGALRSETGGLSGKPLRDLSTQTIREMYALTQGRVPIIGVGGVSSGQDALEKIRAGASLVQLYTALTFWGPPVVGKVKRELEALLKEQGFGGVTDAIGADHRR

| Structure (SMILES) | IC50 (human DHODH) [nM] | IC50 (MOLM-13 cells) [nM] | IC50 (MOLM-13 cells; Homo sapiens, MOLM-13, 72 h) [nM] |
| --- | --- | --- | --- |
| C=C(C)[C@H]1CN(c2c(C)cnc(OC)c2Cl)C(=O)c2cc(F)c(-n3nc(CO)n(CC)c3=O)cc21 (single isomer, unassigned; atropisomer 2) [Example 65, Atropisomer 2, (R*)-2-(3-Chloro-2-methoxy-5-methylpyridin-4-yl)-6-(4-ethyl-3-(hydroxymethyl)-5-oxo-4,5-dihydro-1H-1,2,4-triazol-1-yl)-7-fluoro-4-(prop-1-en-2-yl)-3,4-dihydroisoquinolin-1(2H)-one] |  | 20.7 |  |
| C=C(C)[C@H]1CN(c2c(C)cnc(OC)c2C)C(=O)c2cc(F)c(-n3nc(CO)n(CC)c3=O)cc21 (single isomer, unassigned; atropisomer 2) [Example 57, Atropisomer 2, (R*)-6-(4-Ethyl-3-(hydroxymethyl)-5-oxo-4,5-dihydro-1H-1,2,4-triazol-1-yl)-7-fluoro-2-(2-methoxy-3,5-dimethylpyridin-4-yl)-4-(prop-1-en-2-yl)-3,4-dihydroisoquinolin-1(2H)-one] | > 100 | 29.7 |  |
| C=C(C)[C@@H]1CN(c2c(C)cnc(OC)c2Cl)C(=O)c2cc(F)c(-n3nc(CO)n(CC)c3=O)cc21 (single isomer, unassigned; atropisomer 2) [Example 64, Atropisomer 2, (S*)-2-(3-Chloro-2-methoxy-5-methylpyridin-4-yl)-6-(4-ethyl-3-(hydroxymethyl)-5-oxo-4,5-dihydro-1H-1,2,4-triazol-1-yl)-7-fluoro-4-(prop-1-en-2-yl)-3,4-dihydroisoquinolin-1(2H)-one] | 60 | 15.3 |  |
| CCn1c(CO)nn(-c2ccc3c(c2)C(C(C)C(F)(F)F)CN(c2ccccc2F)C3=O)c1=O (centres unmarked) [Example 74, 6-(4-Ethyl-3-(hydroxymethyl)-5-oxo-4,5-dihydro-1H-1,2,4-triazol-1-yl)-2-(2-fluorophenyl)-4-(1,1,1-trifluoropropan-2-yl)-3,4-dihydroisoquinolin-1(2H)-one] |  |  | 102 |
| C=C(C)[C@H]1CN(c2c(C)ccnc2OC)C(=O)c2cc(F)c(-n3nc(CO)n(CC)c3=O)cc21 (single isomer, unassigned; atropisomer 2) [Example 53, Atropisomer 2, (R*)-6-(4-Ethyl-3-(hydroxymethyl)-5-oxo-4,5-dihydro-1H-1,2,4-triazol-1-yl)-7-fluoro-2-(2-methoxy-4-methylpyridin-3-yl)-4-(prop-1-en-2-yl)-3,4-dihydroisoquinolin-1(2H)-one] |  | 3.36 |  |
| C=C(C)[C@H]1CN(c2c(C)ccnc2OC)C(=O)c2cc(F)c(-n3nc(CO)n(CC)c3=O)cc21 (single isomer, unassigned; atropisomer 1) [Example 52, Atropisomer 1, (R *)-6-(4-Ethyl-3-(hydroxymethyl)-5-oxo-4,5-dihydro-1H-1,2,4-triazol-1-yl)-7-fluoro-2-(2-methoxy-4-methylpyridin-3-yl)-4-(prop-1-en-2-yl)-3,4-dihydroisoquinol in-1 (2H)-one] |  | 105 |  |
| CCn1c(CO)nn(-c2cc3c(cc2F)C(=O)N(c2c(F)cccc2Cl)CN3C(C)C)c1=O [Example 1, 3-(2-Chloro-6-fluorophenyl)-7-(4-ethyl-3-(hydroxymethyl)-5-oxo-4,5-dihydro-1H-1,2,4-triazol-1-yl)-6-fluoro-1-isopropyl-2,3-dihydroquinazolin-4(1H)-one] |  |  | 0.85 |

The next lines start with the values.

| IC50 (human DHODH) [nM] | IC50 (MOLM-13 cells) [nM] | IC50 (MOLM-13 cells; Homo sapiens, MOLM-13, 72 h) [nM] | Structure (SMILES) |
| --- | --- | --- | --- |
| 4 | 2.93 |  | C=C(C)[C@@H]1CN(c2c(C)cc(C)nc2Cl)C(=O)c2cc(F)c(-n3nc(CO)n(CC)c3=O)cc21 (single isomer, unassigned; atropisomer 1) [Example 58, Atropisomer 1, (S*)-2-(2-Chloro-4,6-dimethylpyridin-3-yl)-6-(4-ethyl-3-(hydroxymethyl)-5-oxo-4,5-dihydro-1H-1,2,4-triazol-1-yl)-7-fluoro-4-(prop-1-en-2-yl)-3,4-dihydroisoquinolin-1(2H)-one] |
| 20 | 0.834 |  | C=C(C)C1CN(c2c(C)n[nH]c2Cl)C(=O)c2cc(F)c(-n3nc(CO)n(CC)c3=O)cc21 (single isomer, unassigned) [Example 48, (S*)-2-(5-Chloro-3-methyl-1H-pyrazol-4-yl)-6-(4-ethyl-3-(hydroxymethyl)-5-oxo-4,5-dihydro-1H-1,2,4-triazol-1-yl)-7-fluoro-4-(prop-1-en-2-yl)-3,4-dihydroisoquinolin-1(2H)-one] |
| 4 |  | 5.49 | CCCN1CN(c2c(F)cccc2Cl)C(=O)c2cc(F)c(-n3nc(CO)n(CC)c3=O)cc21 [Example 22, 3-(2-Chloro-6-fluorophenyl)-7-(4-ethyl-3-(hydroxymethyl)-5-oxo-4,5-dihydro-1H-1,2,4-triazol-1-yl)-6-fluoro-1-propyl-2,3-dihydroquinazolin-4(1H)-one] |
| 4 | 6.79 |  | C=C(C)C1CN(c2ccccc2C)C(=O)c2cc(F)c(-n3nc(CO)n(CC)c3=O)cc21 (single isomer, unassigned) [Example 42, (R *)-6-(4-Ethyl-3-(hydroxymethyl)-5-oxo-4,5-dihydro-1H-1,2,4-triazol-1-yl)-7-fluoro-4-(prop-1-en-2-yl)-2-(o-tolyl)-3,4-dihydroisoquinolin-1(2H)-one] |
| 30 |  | 36.3 | C=C(C)C1CN(c2cc(C)ccc2F)C(=O)c2cc(F)c(-n3nc(CO)n(CC)c3=O)cc21 (racemic) [Example 38, Racemic-6-(4-ethyl-3-(hydroxymethyl)-5-oxo-4,5-dihydro-1H-1,2,4-triazol-1-yl)-7-fluoro-2-(2-fluoro-5-methylphenyl)-4-(prop-1-en-2-yl)-3,4-dihydroisoquinolin-1(2H)-one] |
| 20 |  | 27.5 | CCn1c(CO)nn(-c2cc3c(cc2F)C(=O)N(c2cc(C)ccc2F)CN3C(C)C)c1=O [Example 26, 7-(4-Ethyl-3-(hydroxymethyl)-5-oxo-4,5-dihydro-1H-1,2,4-triazol-1-yl)-6-fluoro-3-(2-fluoro-5-methylphenyl)-1-isopropyl-2,3-dihydroquinazolin-4(1H)-one] |
| 0.9 |  | 1.06 | C=C(C)[C@@H]1CN(c2ccccc2Cl)C(=O)c2cc(F)c(-n3nc(CO)n(CC)c3=O)cc21 (stereo in doubt) [Example 34] |
|  | 5.46 |  | C=C(C)C1CN(c2c(C)ccnc2Cl)C(=O)c2cc(F)c(-n3nc(CO)n(CC)c3=O)cc21 (single isomer, unassigned) [Example 46, (S*)-2-(2-Chloro-4-methylpyridin-3-yl)-6-(4-ethyl-3-(hydroxymethyl)-5-oxo-4,5-dihydro-1H-1,2,4-triazol-1-yl)-7-fluoro-4-(prop-1-en-2-yl)-3,4-dihydroisoquinolin-1(2H)-one] |
|  |  | 16.1 | CCn1c(CO)nn(-c2ccc3c(c2)C(C(C)C(F)(F)F)CN(c2c(F)cccc2Cl)C3=O)c1=O (centres unmarked) [Example 75, 2-(2-Chloro-6-fluorophenyl)-6-(4-ethyl-3-(hydroxymethyl)-5-oxo-4,5-dihydro-1H-1,2,4-triazol-1-yl)-4-(1,1,1-trifluoropropan-2-yl)-3,4-dihydroisoquinolin-1(2H)-one] |
|  | 298 |  | C=C(C)C1CN(c2c(C)ccnc2Cl)C(=O)c2cc(F)c(-n3nc(CO)n(CC)c3=O)cc21 (single isomer, unassigned) [Example 47, (R *)-2-(2-Chloro-4-methylpyridin-3-yl)-6-(4-ethyl-3-(hydroxymethyl)-5-oxo-4,5-dihydro-1H-1,2,4-triazol-1-yl)-7-fluoro-4-(prop-1-en-2-yl)-3,4-dihydroisoquinolin-1 (2H)-one] |
